Columns and labels:
[1] = Pharmacokinetic evaluation in Macaca fascicularis monkeys, intravenous administration; assay type: in vivo; conditions: cynomolgus monkey, I.V. 0.2 mg/kg, plasma
Procedure: Macaca fascicularis monkeys were used as test animals to study the pharmacokinetic behavior of the compound of the present invention, administered intravenously at a dose of 0.2 mg/kg, in Macaca fascicularis monkeys (plasma).
Macaca fascicularis monkeys, 3 per group, male, Guangxi Xiongsen, Animal Production License No.: SCXK (Gui) 2021-0004).
Preparation of drug for intravenous administration: 5%DMSO+10%Solutol HS15+85%PBS
The compound of the present invention was weighed. 5% DMSO was first added according to the proportion in the total volume, followed by vortexing and sonication for 2 min to achieve complete dissolution. Then 10% Solutol HS15 was added, followed by vortexing and sonication for 2 min to achieve complete dissolution. Finally, 85% PBS was added, followed by vortexing and sonication for 5 min and filtering through a 0.22 um filter membrane to obtain a colorless, transparent, clear solution having a concentration of 0.1 mg/mL.
Three Macaca fascicularis monkeys, male, respectively administered I.V. after fasting overnight, at a dose of 0.2 mg/kg and in an administration volume of 2 mL/kg.
0.5 mL of blood was collected from the forelimb vein of the Macaca fascicularis monkeys before administration and at 0.083, 0.25, 0.5, 1, 2, 4, 8, and 24 h after administration. The blood samples were placed in EDTA-K2 tubes and centrifuged at 6000 rpm at 4°C for 6 min to separate plasma, which was stored at -80°C.
40 µL of a plasma sample was added with 160 µL of acetonitrile for precipitation, and after mixing, the mixture was centrifuged at 3500 × g for 5 to 20 min.
100 µL of the supernatant solution after treatment was taken for LC/MS/MS analysis of the concentration of the test compound.
Liquid phase condition: Shimadzu LC-20AD pump Mass spectrometry condition: AB Sciex API 4000 mass spectrometer Chromatographic column: phenomenex Gemiu 5 um C18 50 × 4.6 mm Mobile phase: Solution A was 0.1% formic acid aqueous solution, and Solution B was acetonitrile Flow rate: 0.8 mL/min Elution time: 0-4.0 min, the eluent was as follows:
Main pharmacokinetic parameters were calculated using WinNonlin 8.2. The results of the Macaca fascicularis monkey pharmacokinetic experiment are shown in Table 8 below: Table 8: Pharmacokinetic parameters of injection administration of the compound of the present invention in Macaca fascicularis monkeys

[2] = Pharmacokinetic evaluation in rats, oral administration; parameters: species or system SD rats; conditions: rat, in vivo, p.o. 5 mg/kg, plasma
Procedure: SD rats were used as test animals to study the pharmacokinetic behavior of the following example compounds, administered orally at a dose of 5 mg/kg, in the plasma of the rats. SD rats, 3 per group, male. […] An example compound was weighed and added to a 4 mL glass bottle, and the solution was added. […] Sonication was performed for 10 min to obtain a colorless clear solution having a concentration of 0.5 mg/mL. […] The blood samples were placed in EDTA-K2 tubes and centrifuged at 6000 rpm at 4°C for 6 min to separate plasma, which was stored at -80°C. […] • Liquid phase conditions: Shimadzu LC-20AD pump • Mass spectrometry conditions: AB Sciex API 4000 mass spectrometer • Chromatographic column: phenomenex Gemiu 5 um C18 50 × 4.6 mm • Mobile phase: Solution A was 0.1% formic acid aqueous solution, and Solution B was methanol • Flow rate: 1.0 mL/min • Elution time: 0-4.0 min, the eluent was as follows: […] The results of the rat pharmacokinetic experiment are shown in the table below: Table 5: Pharmacokinetic parameters of oral administration of the compound of the present invention in rats

[2H]C([2H])([2H])n1nc2c3c(c(-n4ccn(-c5c6c(nn5-c5cc(C)c(F)c(C)c5)CCN(C(=O)c5cc7cc([C@H]8CCOC(C)(C)C8)ccc7n5[C@@]5(c7noc(=O)[nH]7)C[C@@H]5C)[C@H]6C)c4=O)ccc31)OCCC2 [Example 282, 3-((1S,2S)-1-(5-((S)-2,2-dimethyltetrahydro-2H-pyran-4-yl)-2-((S)-2-(4-fluoro-3,5-dimethylphenyl)-4-methyl-3-(3-(2-(methyl-d3)-2,7,8,9-tetrahydrooxaheptano[4,3,2-cd]indazol-5-yl)-2-carbonyl-2,3-dihydro-1H-imidazol-1-yl)-4,5,6,7-tetrahydro-2H-pyrazolo[4,3-c]pyridine-5-carbonyl)-1H-indol-1-yl)-2-methylcyclopropyl)-1,2,4-oxadiazol-5(4H)-one]
AUC(0-inf) [1]: 1930 ng·h/mL
AUC(0-t) [1]: 1680 ng·h/mL
C0 [1]: 1080 ng/mL
half-life [1]: 9.8 h
MRT inf ([1]; read-out: MRT 0-∞): 10.3 h
AUC(0-inf) [2]: 13900 ng·h/mL
AUC(0-t) at 24 h [2]: 12200 ng·h/mL
Cmax [2]: 971 ng/mL
Tmax [2]: 6 h
half-life [2]: 7.3 h
MRT inf ([2]; read-out: MRT 0-∞): 12 h

From patent publication EP4755885A1 (Shanghai Hansoh Biomedical Co., Ltd., priority 2023, dated 2025)
